Source: publication doi:10.1101/2022.11.22.517505v1 (biorxiv, 2022)

Columns and labels:
[1] = molecular target: T1, PLK2 (Homo sapiens, UniProt Q9NYY3); assay: HotSpot radiometric […]-ATP kinase assay; type: biochemical; settings: remaining activity, mean of two replicates
[2] = molecular target: T2, GSK3B (Homo sapiens, UniProt P49841); assay: HotSpot radiometric […]-ATP kinase assay; type: biochemical; settings: remaining activity, mean of two replicates
[3] = molecular target: CSNK1E (Homo sapiens, UniProt P49674); assay: biochemical; settings: read-out: % of control remaining
[4] = molecular target: T3, GSK3A (Homo sapiens, UniProt P49840); assay: HotSpot radiometric […]-ATP kinase assay; type: biochemical; settings: remaining activity, mean of two replicates
Target sequence in this assay (P49840 2-483): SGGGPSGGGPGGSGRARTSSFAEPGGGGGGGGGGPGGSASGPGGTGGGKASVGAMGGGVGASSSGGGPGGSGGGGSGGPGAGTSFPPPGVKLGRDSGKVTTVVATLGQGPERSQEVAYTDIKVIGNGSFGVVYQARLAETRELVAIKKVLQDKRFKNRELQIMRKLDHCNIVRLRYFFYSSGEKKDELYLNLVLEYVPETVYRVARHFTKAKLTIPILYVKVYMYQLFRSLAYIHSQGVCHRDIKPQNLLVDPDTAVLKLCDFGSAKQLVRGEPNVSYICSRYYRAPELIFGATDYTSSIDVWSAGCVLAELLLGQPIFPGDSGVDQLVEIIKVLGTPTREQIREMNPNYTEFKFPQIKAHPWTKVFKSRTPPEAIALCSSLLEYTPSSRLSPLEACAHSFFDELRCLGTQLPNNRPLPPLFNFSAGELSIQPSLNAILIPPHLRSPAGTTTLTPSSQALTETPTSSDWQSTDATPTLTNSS

[5] = molecular target: GSK3A (NanoLuc fusion, HEK293 cells) (Homo sapiens, UniProt P49840); assay: NanoBRET target engagement, tracer displacement, intact cells; type: cell-based
[6] = molecular target: PLK2 (NanoLuc fusion, HEK293 cells) (Homo sapiens, UniProt Q9NYY3); assay: as above; type: cell-based
[7] = molecular target: PARP2 (Homo sapiens, UniProt Q9UGN5); assay: BPS PARP assay kit, biotin-NAD+ luminescence; type: biochemical; settings: read-out: % inhibition at 10 μM
[8] = molecular target: T3, GSK3A; assay: HotSpot radiometric […]-ATP kinase assay; type: biochemical
Target sequence in this assay (P49840 2-483): as above

[9] = molecular target: T3, GSK3A; assay: biochemical; settings: read-out: % of control remaining
Target sequence in this assay (P49840 whole entry, the tested form may be a part): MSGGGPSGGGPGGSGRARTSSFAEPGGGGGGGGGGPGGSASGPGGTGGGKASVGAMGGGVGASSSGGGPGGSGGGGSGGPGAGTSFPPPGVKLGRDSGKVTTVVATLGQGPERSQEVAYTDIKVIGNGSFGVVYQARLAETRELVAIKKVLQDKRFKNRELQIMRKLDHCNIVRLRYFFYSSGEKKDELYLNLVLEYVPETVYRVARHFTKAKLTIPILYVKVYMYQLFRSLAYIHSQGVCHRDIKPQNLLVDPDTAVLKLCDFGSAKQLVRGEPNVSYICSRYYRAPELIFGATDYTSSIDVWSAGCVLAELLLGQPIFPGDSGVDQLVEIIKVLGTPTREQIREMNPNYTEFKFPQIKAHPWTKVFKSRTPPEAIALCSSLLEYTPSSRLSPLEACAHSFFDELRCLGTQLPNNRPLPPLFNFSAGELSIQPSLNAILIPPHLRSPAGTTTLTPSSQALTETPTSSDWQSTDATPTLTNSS

[10] = molecular target: PARP1 (Homo sapiens, UniProt P09874); assay: BPS PARP assay kit, biotin-NAD+ luminescence; type: biochemical; settings: read-out: % inhibition at 10 μM
[11] = molecular target: T1, PLK2; assay: HotSpot radiometric […]-ATP kinase assay; type: biochemical
[12] = molecular target: T1, PLK2; assay: biochemical; settings: read-out: % of control remaining
[13] = molecular target: T2, GSK3B; assay: biochemical; settings: read-out: % of control remaining
[14] = molecular target: T2, GSK3B; assay: HotSpot radiometric […]-ATP kinase assay; type: biochemical

T1 sequence (Q9NYY3 whole entry): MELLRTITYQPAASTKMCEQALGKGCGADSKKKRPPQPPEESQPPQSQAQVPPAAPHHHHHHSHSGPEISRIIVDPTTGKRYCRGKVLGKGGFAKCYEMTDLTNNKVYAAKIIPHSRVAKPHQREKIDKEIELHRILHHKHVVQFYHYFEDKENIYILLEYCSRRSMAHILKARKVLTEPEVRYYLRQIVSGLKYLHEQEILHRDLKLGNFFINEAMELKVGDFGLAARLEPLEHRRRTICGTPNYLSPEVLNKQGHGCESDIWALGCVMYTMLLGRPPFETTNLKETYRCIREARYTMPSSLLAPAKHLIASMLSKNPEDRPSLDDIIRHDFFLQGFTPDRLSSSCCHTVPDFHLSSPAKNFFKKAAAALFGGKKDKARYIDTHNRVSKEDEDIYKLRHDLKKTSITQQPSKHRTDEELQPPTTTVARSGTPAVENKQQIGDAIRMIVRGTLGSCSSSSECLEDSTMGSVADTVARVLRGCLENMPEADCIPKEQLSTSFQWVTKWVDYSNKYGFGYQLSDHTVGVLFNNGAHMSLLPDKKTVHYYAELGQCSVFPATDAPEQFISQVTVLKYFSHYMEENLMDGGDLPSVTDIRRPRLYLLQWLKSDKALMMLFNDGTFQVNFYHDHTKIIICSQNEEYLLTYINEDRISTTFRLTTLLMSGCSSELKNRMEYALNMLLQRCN
T2 sequence (P49841 whole entry): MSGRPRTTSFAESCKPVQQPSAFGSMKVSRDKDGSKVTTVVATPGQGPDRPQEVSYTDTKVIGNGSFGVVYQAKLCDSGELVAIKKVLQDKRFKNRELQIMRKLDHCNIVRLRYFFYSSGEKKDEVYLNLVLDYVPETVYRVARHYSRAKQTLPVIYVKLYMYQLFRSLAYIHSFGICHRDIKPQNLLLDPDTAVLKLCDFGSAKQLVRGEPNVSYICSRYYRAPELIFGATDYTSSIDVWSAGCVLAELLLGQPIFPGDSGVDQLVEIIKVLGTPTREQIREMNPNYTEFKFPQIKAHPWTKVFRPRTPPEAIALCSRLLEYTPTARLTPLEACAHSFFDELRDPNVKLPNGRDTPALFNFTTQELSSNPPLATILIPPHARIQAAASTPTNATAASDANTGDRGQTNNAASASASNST
Sequence of CSNK1E (P49674 whole entry): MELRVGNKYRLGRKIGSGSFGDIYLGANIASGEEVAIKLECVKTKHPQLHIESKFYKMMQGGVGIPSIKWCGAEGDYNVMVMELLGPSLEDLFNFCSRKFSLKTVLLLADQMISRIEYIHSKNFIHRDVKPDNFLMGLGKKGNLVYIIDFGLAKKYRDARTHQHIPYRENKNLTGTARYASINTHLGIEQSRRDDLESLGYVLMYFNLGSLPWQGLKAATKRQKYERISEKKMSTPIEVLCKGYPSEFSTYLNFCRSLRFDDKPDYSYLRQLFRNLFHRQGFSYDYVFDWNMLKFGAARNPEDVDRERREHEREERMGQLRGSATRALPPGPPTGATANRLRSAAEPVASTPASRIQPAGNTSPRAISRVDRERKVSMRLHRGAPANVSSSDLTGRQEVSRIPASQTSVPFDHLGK
Sequence of PLK2 (NanoLuc fusion, HEK293 cells) (Q9NYY3 whole entry, the tested form may be a part): as the sequence (Q9NYY3 whole entry) above
Sequence of PARP1 (P09874 2-1014): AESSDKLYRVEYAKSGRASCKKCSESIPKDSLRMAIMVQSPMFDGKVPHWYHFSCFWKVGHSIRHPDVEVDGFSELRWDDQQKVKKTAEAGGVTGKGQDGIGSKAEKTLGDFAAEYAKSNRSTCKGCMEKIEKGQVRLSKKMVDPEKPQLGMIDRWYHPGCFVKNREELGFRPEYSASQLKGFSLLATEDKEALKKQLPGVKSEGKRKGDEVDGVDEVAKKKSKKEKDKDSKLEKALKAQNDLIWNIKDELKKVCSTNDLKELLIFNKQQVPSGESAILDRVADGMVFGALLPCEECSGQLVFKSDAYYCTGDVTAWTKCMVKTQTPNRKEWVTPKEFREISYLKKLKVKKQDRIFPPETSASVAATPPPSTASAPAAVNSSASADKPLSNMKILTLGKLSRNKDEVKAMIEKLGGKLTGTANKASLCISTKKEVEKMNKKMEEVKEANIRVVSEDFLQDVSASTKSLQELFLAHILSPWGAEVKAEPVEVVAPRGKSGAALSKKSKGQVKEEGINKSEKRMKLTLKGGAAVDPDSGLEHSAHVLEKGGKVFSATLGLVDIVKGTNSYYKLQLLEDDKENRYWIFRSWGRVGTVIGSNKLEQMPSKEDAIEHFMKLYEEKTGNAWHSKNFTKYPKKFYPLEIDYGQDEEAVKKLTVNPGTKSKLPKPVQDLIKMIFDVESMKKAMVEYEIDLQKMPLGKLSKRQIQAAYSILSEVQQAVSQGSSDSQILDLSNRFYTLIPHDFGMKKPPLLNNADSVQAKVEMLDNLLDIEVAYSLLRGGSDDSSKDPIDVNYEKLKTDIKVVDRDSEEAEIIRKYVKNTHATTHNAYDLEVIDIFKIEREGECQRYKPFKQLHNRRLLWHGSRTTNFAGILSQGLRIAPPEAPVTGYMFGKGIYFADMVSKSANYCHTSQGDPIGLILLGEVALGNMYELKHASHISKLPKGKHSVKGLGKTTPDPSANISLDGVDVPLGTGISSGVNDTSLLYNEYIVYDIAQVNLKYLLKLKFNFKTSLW
Sequence of PARP2 (Q9UGN5 whole entry): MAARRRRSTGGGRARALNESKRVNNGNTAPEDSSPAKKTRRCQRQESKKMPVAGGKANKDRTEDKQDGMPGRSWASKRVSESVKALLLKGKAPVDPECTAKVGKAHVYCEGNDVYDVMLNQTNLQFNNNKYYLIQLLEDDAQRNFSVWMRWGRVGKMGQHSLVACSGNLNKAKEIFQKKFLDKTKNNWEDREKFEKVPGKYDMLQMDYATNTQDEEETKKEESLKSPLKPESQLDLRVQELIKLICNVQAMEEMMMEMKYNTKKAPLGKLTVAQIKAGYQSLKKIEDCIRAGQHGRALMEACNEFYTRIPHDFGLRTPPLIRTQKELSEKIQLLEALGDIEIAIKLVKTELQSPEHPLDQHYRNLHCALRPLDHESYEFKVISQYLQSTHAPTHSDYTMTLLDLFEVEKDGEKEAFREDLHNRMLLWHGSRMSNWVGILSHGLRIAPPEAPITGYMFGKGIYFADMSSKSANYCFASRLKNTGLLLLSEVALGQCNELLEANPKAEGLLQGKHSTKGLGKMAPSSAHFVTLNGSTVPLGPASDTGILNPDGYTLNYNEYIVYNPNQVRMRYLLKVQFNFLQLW
Sequence of GSK3A (NanoLuc fusion, HEK293 cells) (P49840 2-483): as the sequence (P49840 2-483) above

## CNCc1ccc(-c2[nH]c3cc(F)cc4c3c2CCNC4=O)cc1 [rucaparib]
[1]
  Enzyme activity (%) at 1 μM: 88.95%
[2]
  Enzyme activity (%) at 1 μM: 35.38%
[3]
  remaining activity at 1 µM: 103%
[4]
  Enzyme activity (%) at 1 μM: 74.15%

## O=C(O)c1ccc(-c2[nH]c3cc(F)cc4c3c2CCNC4=O)cc1 [M324]
[5]
  EC50: 15000 nM
[6]
  EC50: 5080 nM
[3]
  remaining activity at 1 µM: 102%
[7]
  inhibition at 10 µM: 100%
[8]
  IC50: 579 nM
[9]
  remaining activity at 1 µM: 34.4%
[10]
  inhibition at 10 µM: 100%
[11]
  IC50: 591 nM
[12]
  remaining activity at 1 µM: 40.7%
[13]
  remaining activity at 1 µM: 63.1%
[14]
  IC50: 2000 nM
